Data as given in patent US20080249400A1, “Intraoperative Imaging Of Hepatobiliary Structures” (University of Rochester Medical Center, priority 2006, published 2008).

How the values were obtained:
mammals = conditions: used in mammals; cited from earlier work
liver [1] = assay: Liver visualization by fluorescent dye in adult pig model after RF thermal ablation (SPY imaging system); type: in vivo; conditions: intravenous bolus, liver subjected to RF ablation
[2] = cited from earlier work
liver [3] = assay: Rat liver visualized by laser excitation light delivered by fiber optics through a laparoscope; type: in vivo; conditions: male Sprague-Dawley rat

Q: Which toxicity in mammals (mammals) does the source give for `N=C(N)c1ccc(/C=C/c2ccc(C(=N)N)cc2O)cc1` [Fluorogold] here?
A: low evidence of toxicity

Q: With `CC1(C)C(/C=C/C=C/C=C/C=C2\N(CCCCS(=O)(=O)O)c3ccc4ccccc4c3C2(C)C)=[N+](CCCCS(=O)(=O)[O-])c2ccc3ccccc3c21` [ICG, indocyanine green] as the compound, how does the “fluorescence of liver tissue (perfusion) under laser excitation” value (liver [1]) read?
A: The lighter areas to the right and bottom sides of the photos indicate normal liver tissue

Q: And the distribution ([2]; after intravenous injection, with normal vascular permeability)?
A: remains intravascular

Q: And the metabolism ([2]; in the body)?
A: not metabolized in the body

Q: And the enterohepatic recirculation ([2]; in vivo)?
A: does not undergo enterohepatic recirculation

Q: And the excretion route ([2]; in vivo)?
A: excreted exclusively by the liver

Q: What about the intestinal reabsorption ([2]; in vivo) of the same compound?
A: not reabsorbed from the intestine

Q: And the toxicity in mammals (mammals)?
A: low evidence of toxicity

Q: And the “fluorescence of liver under laparoscopic laser excitation” value (liver [3])?
A: The brightly fluorescing structure is the liver

Q: With Fast Blue as the compound, how does the toxicity in mammals (mammals) read?
A: low evidence of toxicity
